Tests used:
[1] = tested on: Interleukin-4 (IL-4); experiment: Th1/Th2 cytokine profiling assay: IL-4; format: cell-based; conditions: Ovalbumin-restimulated spleen cells of immunized Balb/c mice; 10 micrograms per ml; 72 hours
[2] = tested on: Interleukin-5 (IL-5); experiment: Th1/Th2 cytokine profiling assay: IL-5; format: cell-based; conditions: Ovalbumin-restimulated spleen cells of immunized Balb/c mice; 10 micrograms per ml; 72 hours
[3] = tested on: Primary Human endothelial cells (HUVEC); experiment: Endothelial cell migration assay; format: cell-based; conditions: 10 micrograms per ml, 22 hours
[4] = tested on: A549 cells; experiment: Propidium iodide cell cycle assay; format: cell-based, Human; conditions: 10 micrograms per ml, 24 hours, FACS
[5] = Cytotoxicity in CEM-SS cells (MTS) of the HIV-1 experiments; conditions: human
[6] = tested on: MRSA; experiment: Methicillin resistant Staphylococcus aureus (MRSA) assay; format: cell-based; conditions: peptide 10 micrograms per ml, macroscopic growth, read visually
[7] = tested on: Pseudomonas aeruginosa; experiment: Pseudomonas aeruginosa assay; format: cell-based; conditions: peptide 10 micrograms per ml, macroscopic growth, read visually
[8] = tested on: Human Peripheral Blood Mononuclear Cells (PBMC); experiment: T cell proliferation assay (PHA, 3H-thymidine); format: cell-based; conditions: 10 micrograms per ml, 3 days, 3H-thymidine incorporation
[9] = tested on: Human Peripheral Blood Mononuclear Cells (PBMC); experiment: B cell proliferation assay (SAC plus Interleukin-2, 3H-thymidine); format: cell-based; conditions: 10 micrograms per ml, 3 days, 3H-thymidine incorporation
[10] = tested on: HUVEC; experiment: Endothelial tube formation assay; format: cell-based, Human; conditions: 10 micrograms per ml, 20 hours, average tubule length
Excerpt: Positive control was vehicle only.

[11] = tested on: TNF alpha; experiment: TNF alpha production assay in LPS-stimulated macrophages (ELISA); format: cell-based, human; conditions: PBMC-derived macrophages, 10 micrograms per ml 30 min before lipopolysaccharide 200 ng/ml, overnight
Excerpt: Not stimulated macrophages served as negative background control.

[12] = tested on: Interferon-γ (IFN-γ); experiment: Th1/Th2 cytokine profiling assay: IFN-γ; format: cell-based; conditions: Ovalbumin-restimulated spleen cells of immunized Balb/c mice; 10 micrograms per ml; 72 hours
[13] = tested on: HCMV strain AD169; experiment: HCMV plaque reduction assay in MRC-5 cells; conditions: HCMV AD169 in MRC-5 cells; peptide 10 micrograms per ml; 7-10 days
[14] = tested on: A549 cells; experiment: Apoptosis induction assay (Annexin-5); format: cell-based, Human; conditions: apoptosis in A549 cells, 10 micrograms per ml, 24 hours
[15] = tested on: Streptococcus pneumoniae; experiment: Streptococcus pneumoniae assay; format: cell-based; conditions: peptide 10 micrograms per ml, macroscopic growth, read visually
[16] = Cytotoxicity in HepG2-2.2.15 cells (dye uptake assay); format: cell-based; conditions: human, peptide 10 micrograms per ml, read-out: % Cell Viability
[17] = tested on: HIV-1IIIB; experiment: HIV-1 antiviral assay (CPE reduction, MTS); format: cell-based; conditions: peptide 10 micrograms per ml, 6 days post-infection
[18] = Cytotoxicity in MRC-5 cells (CellTiter 96); conditions: human, MRC-5 cells (embryonal lung fibroblasts)
[19] = tested on: hepatitis B virus (HBV) ayw strain; experiment: HBV experimental assay system (secreted HBV DNA, TaqMan PCR); format: cell-based; conditions: HepG2-2.2.15 cells; peptide 10 micrograms per ml; six days; HBV DNA in supernatant
Procedure: HepG2-2.2.15 is a stable cell line containing the hepatitis B virus (HBV) ayw strain genome (ATCC Cat. No. CRL-11997). Antiviral compounds blocking any late step of viral replication such as transcription, translation, pregenome encapsidation, reverse transcription, particle assembly and release can be identified and characterized using this cell line.
HepG2-2.2.15 cells were plated in 96-well microtiter plates. After 16-24 hours the confluent monolayer of HepG2-2.2.15 cells was washed and the medium was replaced with complete medium containing test peptide—10 micrograms per ml—in duplicate. […] Three days later the culture medium was replaced with fresh medium containing the peptide. Six days following the initial administration of the peptide, the cell culture supernatants was collected, treated with pronase and DNAse and then used in a real-time quantitative TaqMan PCR assay. The PCR-amplified HBV DNA was detected in real-time by monitoring increases in fluorescence signals that result from the exonucleolytic degradation of a quenched fluorescence probe molecule that hybridizes to the amplified HBV DNA. For each PCR amplification, a standard curve was simultaneously generated using dilutions of purified HBV DNA. Antiviral activity was calculated from the reduction in HBV DNA levels (% virus control). […]

[20] = tested on: Interleukin-2 (IL-2); experiment: Th1/Th2 cytokine profiling assay: IL-2; format: cell-based; conditions: Ovalbumin-restimulated spleen cells of immunized Balb/c mice; 10 micrograms per ml; 72 hours
[21] = tested on: RAW 264.7 cells; experiment: Phagocytosis assay (Fluorescein-labeled Escherichia coli); format: cell-based, Mouse; conditions: 10 micrograms per ml, 30 min preincubation, 60 min ingestion, flow cytometry
[22] = tested on: A549 cells; experiment: Apoptosis prevention assay (C2 ceramide, Annexin-5); format: cell-based, Human; conditions: A549 cells pretreated 30 min with 10 micrograms per ml, then C2 ceramide
[23] = tested on: Tumor Necrosis Factor-α (TNF-α); experiment: Th1/Th2 cytokine profiling assay: TNF-α; format: cell-based; conditions: Ovalbumin-restimulated spleen cells of immunized Balb/c mice; 10 micrograms per ml; 72 hours

Substance: Ac-RFMWMR-NH2 [Ac-Arg-Phe-Met-Trp-Met-Arg-NH2]
- IL-4 spleen cells; TH2 response (% of control) [1]: 156.2 % of control
- IL-5 spleen cells; TH2 response (% of control) [2]: 93.8 % of control
- % inhibition of migration [3]: −15%
- Cell cycle analysis G0/G1 [4]: 59.2
- Cell cycle analysis G2/M [4]: 8.2
- Cell cycle analysis S [4]: 32.7
- viability at 10 micrograms per ml [5]: 100%
- % inhibition [6]: 0.0%
- % inhibition [7]: 0.0%
- % of PHA induced control [8]: 109.1%
- % of SAC/IL2 induced control [9]: 106.3%
- % inhibition of tube formation [10]: 23%
- % of LPS induction [11]: 149.8%
- INFγ spleen cells; TH1 response (% of control) [12]: 218.6 % of control
- % plaque reduction [13]: 0.0%
- % of induction [14]: 1.2%
- % inhibition [15]: 0.0%
- viability at 144 h, 10 micrograms per ml [16]: 100%
- % CPE reduction in HIV-1 infected CEM-SS cells [17]: 0.0%
- viability at 144 h [18]: 84%
- % inhibition of HBV replication in HEP G2 cells [19]: 46.8%
- IL-2 spleen cells (% of control) [20]: 156.5 % of control
- % of control phagocytosis [21]: 105.9%
- % prevention of ceramide induced apoptosis [22]: 0.0%
- TNF-a spleen cells; TH1 response (% of control) [23]: 118.8 % of control

— patent US8338380B2, “Use of the peptide RFMWMR as a therapeutic agent” (priority 2007, dated 2012)
